For data set [1] the following is noted: subcutaneous; patient not affected by ACTH or Prednisone; several weeks of treatment; cited from earlier work.
For data set [2] the following is noted: dogs, cited from earlier work.
The conditions of data set [3]: humans, cited from earlier work.
Data set [4] can be described thus: in vivo. The conditions noted are these: male, beagle, dog. The text has this:
This study was undertaken to determine the safety of Products X and Y, and to determine the pharmacokinetic profiles of Products X, Y, and a commercially available oral glucosamine formulation (Glucosamine) following a single oral and intravenous administration to beagle dogs. The pharmacokinetic profiles were examined for indications of sustained or slow release of glucosamine by Products X and Y.
A total of nine (9) male Beagle dogs were used during this study. The animals were assigned to three treatment groups of 3 animals/group. Group 1 received low dose Products X, Y and Glucosamine by oral administration on Days 1, 8 and 15, respectively. Group 2 animals received high dose Products X and Y by oral administration on Days 1 and 8, respectively, and Group 3 animals received low dose Products X and Y by intravenous injection on Days 1 and 8, respectively. Low and high dose animals were administered nominal dose levels of 21.4 mg/kg and 214 mg/kg, respectively. These levels approximated 1× and 10× the standard daily oral glucosamine consumption (1500 mg) for an average human (70 kg standard body weight). The commercial glucosamine was assumed to contain 100% active ingredient.
The following parameters were recorded throughout the study: mortality, clinical signs, body weight and clinical pathology (hematology, coagulation and clinical chemistry). Serial blood samples were collected from all animals for pharmacokinetic profiling following each dosing.
Samples were collected via the jugular vein, at: 0 (pre-dose), 15, 30, 60, 120 minutes post-dose. A 5 minute post-dose sample was included for Group 3.

Where two headings read alike, the source gives them in different places.

What is called AUC is the area under the concentration-time curve, a measure of exposure. Low values mean low exposure, high ones high exposure.

Take `Cl.N[C@H]1C(O)O[C@H](CO)[C@@H](O)[C@@H]1O` (stereo partly drawn) [D-glucosamine-HCl]: the “symptoms of Crohn's Disease” value in data set [1] is given as “symptoms stopped”.
For `N[C@H]1C(O)O[C@H](CO)[C@@H](O)[C@@H]1O` (stereo partly shown) [Glucosamine, glucosamine], the “glucosamine found in urine” value in data set [2] (after 144 hours) is on record as “about 10%”. In data set [2], the gastrointestinal absorption result is given as “about 87%”. The “glucosamine found in urine” value in data set [3] (after 144 hours) is roughly 11%. Further, in data set [3], the gastrointestinal absorption is reported as roughly 90%. For the same molecule, in data set [4], the “time of peak serum glucosamine level post-dose” value came to 60 min. Also, in data set [4] (po, 21.4 mg/kg), the area under the curve (AUC) is 1650 ng·h/mL, the concentration at 120 minutes was 533 ± 188 ng/mL and the “ratio of glucosamine delivered into the serum (oral glucosamine = 100)” value was 100. Also, in data set [4] (po, 21.4 mg/kg, 120 minutes), the “group mean serum glucosamine level at 120 minutes post-dose” value came out at 533 ng/mL.

Source of the values: patent US20050070500A1, “Method of modulating release of saccharides and uses thereof” (priority 2001, published 2005).
